Results from patent US20080254155A1, “Use of Ginkgo Biloba Extract in Preparation of a Composition for Lowering Cholesterol” (SHANGHAI BIOCHIP CO., LTD, priority 2005, published 2008).

Tested on: HepG2 cells
Assay: Cellular cholesterol in HepG2 cells (cholesterol test kit)
Type: cell-based, human
Details: HepG2, 1 μM lovastatin, 6-hr culture
Description: 2) Cell Culture and Treatment • (1) Cell Source: HepG2 ATCC • (2) Condition of Culture • Medium: MEM (Minimum essential medium)+10% FBS • Incubation: 37° C., 5% CO2 • Passage and Collection: 0.05% trypsin+0.02% EDTA • (3) Cell Treatment:
Cells were cultured in petri dishes of φ×10 cm (falcon) and grown to the desired proliferation, then detached and transferred to a 6-well plate (falcon). The cells were allowed to adhere and proliferate to the desired density (about 60%-70% confluence), and then treated and grouped as indicated in the table below.
In order to minimize the interference from the cytokines and lipids in serum without sacrificing the growth, the medium was replaced with MEM+2% FBS during treatment.
For every batch of cells, each treatment was repeated in 6 replicates. The cells were treated at different time points and collected at the same time.
The cholesterol test kit from Shanghai JieMen Biotechnology Joint-Corporate was used in accordance to the manufacturer's instruction.

**Q.** Which Cellular cholesterol does the source give for CC[C@H](C)C(=O)O[C@H]1C[C@@H](C)C=C2C=C[C@H](C)[C@H](CC[C@@H]3C[C@@H](O)CC(=O)O3)[C@H]21 [Positive Control, lovastatin] here?
**A.** 34.23 ± 2.38 μg/mg protein
